Blank lines part the entries; values can stand above or below the compound they belong to.
Key:
U87MG cells = assay: In vitro cell uptake, U87MG (FIG. 1a); type: cell-based, human; details: controls ^68Ga-DOTA, ^68Ga-NOTA
Procedure: Human colon cancer cell line SNU-C4 was purchased from Korea Cell Line Bank (KCLB). Human thyroid cell line ARO, human liver cancer cell line Hep3B, human glioma cell line U251MG and U87MG, and mouse colon cell line CT-26 were purchased from American Type Culture Collection (ATCC). SNU-C4 and ARO were culture in RPMI1640 (Welgene Inc., Korea) and Hep3B, U251 MG, U87MG, and CT-26 were cultured in DMEM (Welgene Inc., Korea). Penicillin, streptomycin and amphotericin B (10,000 IU/mL, 10 mg/mL and 25 μg/mL, respectively, Mediatech Inc., U.S.A.) 1% mixture and fetal bovine serum (Welgene Inc., Korea) were added to all cell culture media. Cell culture was done in 37° C. incubator with supply of 5% CO2.
About 1.8×10^5 cells/mL CT-26 and 1.2×10^5 cells/mL U87MG were put into 24-well incubation plate and incubated for 20 hr. When the each well was about 80% confluent with cells, 296 kBq/0.5 mL of ^68Ga labeled agent was added to each well. Culture supernatants were discarded at each time point and cells were washed with ice-cooled Hank's balanced salt solution (HBSS, pH7.3, Gibco, U.S.A.) 2 times. The cells were dissolved by 0.5% sodium dodecylsulfate (SDS), recovered and counted using a gamma counter (Packard, Can berra Co., U.S.A.). Total protein amount in each sample was measured by bicinchonic acid (BCA, Pierce, U.S.A.) method.

[1] = test system: SNU-C4 xenografted nude mice; assay: PET imaging of tumor xenografted mice; type: in vivo, mouse; details: PET at 1 and 2 hr post-injection, FIG. 2
Procedure: Human colon cancer cell line SNU-C4 was cultured in RPMI1640 media containing 10% fetal bovine serum and harvested using trypsin. The cells were washed using 10 mL PBS and centrifugation at 3,000 rpm. Each nude mouse was injected with 2×10^5 cells/0.1 mL on the right shoulder subcutaneously. On 14 days post-injection, each 10 μCi/0.1 mL of ^68Ga labeled agent was injected into the xenografted mice through the tail vein. The injected mice were anesthetized using 2% isoflurane, PET images were obtained at 1 and 2 hr post-injection using rodent R4, microPET scanner (Concorde Microsystem Inc.). The images were analyzed using ASIPro software (Concorde Microsystem Inc.).

[2] = test system: SNU-C4 xenografted nude mice; assay: Biodistribution study in SNU-C4 xenografted nude mice after intravenous injection; type: in vivo, mouse; details: for % ID/g Tumor: SNU-C4 tumor; for tumor uptake compared with the control heterocyclic compound (in words): SNU-C4 xenografted nude mice, 10 min to 2 hr
Procedure: Human colon cancer cell line SNU-C4 was cultured in RPMI1640 media containing 10% fetal bovine serum and harvested using trypsin. The cells were washed using 10 mL PBS and centrifugation at 3,000 rpm. Each nude mouse was injected with 2×10^5 cells/0.1 mL on the right shoulder subcutaneously. On 13 days post-injection, each 10 μCi/0.1 mL of ^68Ga labeled agent was injected into the xenografted mice through the tail vein. The injected mice were sacrificed at 10 min, 30 min, 1 hr, and 2 hr, cancer, blood, muscle, heart, liver, spleen, stomach, intestine, and bone were obtained, weighed, and their radioactivities were counted. The results were expressed as percentages of injected dose per gram tissue (% ID/g).

Hep3B cells = assay: In vitro cell uptake, Hep3B (FIG. 1c); type: cell-based, human; details: control ^68Ga-NOTA
[3] = 10 min after intravenous injection
[4] = 30 min after intravenous injection
[5] = 1 hr after intravenous injection
[6] = 2 hr after intravenous injection

% ID/g Tumor [2, 3]: 3.33 ± 0.58 % ID/g
% ID/g Tumor [2, 4]: 2.23 ± 0.64 % ID/g
% ID/g Tumor [2, 5]: 0.93 ± 0.22 % ID/g
% ID/g Tumor [2, 6]: 0.66 ± 0.25 % ID/g
% ID/g Blood [2, 3]: 7.87 ± 1.11 % ID/g
% ID/g Blood [2, 4]: 2.63 ± 0.11 % ID/g
% ID/g Blood [2, 5]: 1.30 ± 0.28 % ID/g
% ID/g Blood [2, 6]: 0.65 ± 0.11 % ID/g
% ID/g Bone [2, 3]: 2.52 ± 0.64 % ID/g
% ID/g Bone [2, 4]: 1.20 ± 0.17 % ID/g
% ID/g Bone [2, 5]: 0.90 ± 0.12 % ID/g
% ID/g Bone [2, 6]: 0.70 ± 0.26 % ID/g
% ID/g Heart [2, 3]: 2.19 ± 0.47 % ID/g
% ID/g Heart [2, 4]: 0.78 ± 0.07 % ID/g
% ID/g Heart [2, 5]: 0.43 ± 0.10 % ID/g
% ID/g Heart [2, 6]: 0.15 ± 0.05 % ID/g
% ID/g Intestine [2, 3]: 1.91 ± 0.48 % ID/g
% ID/g Intestine [2, 4]: 0.74 ± 0.11 % ID/g
% ID/g Intestine [2, 5]: 0.52 ± 0.10 % ID/g
% ID/g Intestine [2, 6]: 0.40 ± 0.10 % ID/g
% ID/g Kidney [2, 3]: 50.94 ± 18.62 % ID/g
% ID/g Kidney [2, 4]: 44.79 ± 11.99 % ID/g
% ID/g Kidney [2, 5]: 67.43 ± 16.10 % ID/g
% ID/g Kidney [2, 6]: 48.79 ± 20.36 % ID/g
% ID/g Liver [2, 3]: 1.57 ± 0.22 % ID/g
% ID/g Liver [2, 4]: 0.80 ± 0.12 % ID/g
% ID/g Liver [2, 5]: 0.56 ± 0.06 % ID/g
% ID/g Liver [2, 6]: 0.39 ± 0.10 % ID/g
% ID/g Muscle [2, 3]: 2.12 ± 0.64 % ID/g
% ID/g Muscle [2, 4]: 0.90 ± 0.11 % ID/g
% ID/g Muscle [2, 5]: 0.47 ± 0.16 % ID/g
% ID/g Muscle [2, 6]: 0.14 ± 0.03 % ID/g
% ID/g Spleen [2, 3]: 1.64 ± 0.26 % ID/g
% ID/g Spleen [2, 4]: 0.74 ± 0.10 % ID/g
% ID/g Spleen [2, 5]: 0.47 ± 0.04 % ID/g
% ID/g Spleen [2, 6]: 0.33 ± 0.08 % ID/g
% ID/g Stomach [2, 3]: 2.63 ± 0.63 % ID/g
% ID/g Stomach [2, 4]: 0.90 ± 0.17 % ID/g
% ID/g Stomach [2, 5]: 0.45 ± 0.10 % ID/g
% ID/g Stomach [2, 6]: 0.21 ± 0.05 % ID/g
SMILES: NC(CNC(=O)CN1CCN(CC(=O)[O-])CCN(CC(=O)[O-])CCN(CC(=O)[O-])CC1)C(=O)O.[68Ga+3] (centres unmarked) [^68Ga-DOTA-ala]
tumor cell uptake versus control agents (U87MG cells): significantly increase tumor cell uptakes
tumor uptake in PET images [1]: high tumor uptakes
tumor uptake compared with the control heterocyclic compound (in words) [2]: higher than that of ^68Ga-DOTA at all time point

% ID/g Tumor [2, 3]: 2.87 ± 0.58 % ID/g
% ID/g Tumor [2, 4]: 1.40 ± 0.43 % ID/g
% ID/g Tumor [2, 5]: 0.73 ± 0.25 % ID/g
% ID/g Tumor [2, 6]: 0.61 ± 0.34 % ID/g
tumor uptake compared with the control heterocyclic compound (in words) [2]: higher and increasing by time
tumor uptake relative to that of ^68Ga-NOTA ([2]; at 10 min): 1.07 times
tumor uptake relative to that of ^68Ga-NOTA ([2]; at 30 min): 1.09 times
tumor uptake relative to that of ^68Ga-NOTA ([2]; at 1 hr): 1.24 times
tumor uptake relative to that of ^68Ga-NOTA ([2]; at 2 hr): 1.42 times
% ID/g Blood [2, 3]: 7.46 ± 0.78 % ID/g
% ID/g Blood [2, 4]: 2.69 ± 0.59 % ID/g
% ID/g Blood [2, 5]: 0.73 ± 0.05 % ID/g
% ID/g Blood [2, 6]: 0.15 ± 0.03 % ID/g
% ID/g Bone [2, 3]: 2.22 ± 0.34 % ID/g
% ID/g Bone [2, 4]: 1.05 ± 0.35 % ID/g
% ID/g Bone [2, 5]: 0.47 ± 0.09 % ID/g
% ID/g Bone [2, 6]: 0.10 ± 0.07 % ID/g
% ID/g Heart [2, 3]: 2.13 ± 0.13 % ID/g
% ID/g Heart [2, 4]: 0.71 ± 0.17 % ID/g
% ID/g Heart [2, 5]: 0.26 ± 0.03 % ID/g
% ID/g Heart [2, 6]: 0.10 ± 0.05 % ID/g
% ID/g Intestine [2, 3]: 1.74 ± 0.22 % ID/g
% ID/g Intestine [2, 4]: 0.77 ± 0.19 % ID/g
% ID/g Intestine [2, 5]: 0.44 ± 0.07 % ID/g
% ID/g Intestine [2, 6]: 0.35 ± 0.11 % ID/g
% ID/g Kidney [2, 3]: 20.96 ± 7.35 % ID/g
% ID/g Kidney [2, 4]: 9.07 ± 1.68 % ID/g
% ID/g Kidney [2, 5]: 5.81 ± 0.57 % ID/g
% ID/g Kidney [2, 6]: 4.04 ± 0.63 % ID/g
% ID/g Liver [2, 3]: 2.08 ± 0.25 % ID/g
% ID/g Liver [2, 4]: 1.34 ± 0.22 % ID/g
% ID/g Liver [2, 5]: 1.05 ± 0.04 % ID/g
% ID/g Liver [2, 6]: 0.84 ± 0.18 % ID/g
% ID/g Muscle [2, 3]: 2.29 ± 0.52 % ID/g
% ID/g Muscle [2, 4]: 0.87 ± 0.33 % ID/g
% ID/g Muscle [2, 5]: 0.26 ± 0.05 % ID/g
% ID/g Muscle [2, 6]: 0.06 ± 0.04 % ID/g
% ID/g Spleen [2, 3]: 1.84 ± 0.10 % ID/g
% ID/g Spleen [2, 4]: 0.93 ± 0.14 % ID/g
% ID/g Spleen [2, 5]: 0.55 ± 0.07 % ID/g
% ID/g Spleen [2, 6]: 0.48 ± 0.11 % ID/g
% ID/g Stomach [2, 3]: 2.46 ± 0.31 % ID/g
% ID/g Stomach [2, 4]: 0.79 ± 0.17 % ID/g
% ID/g Stomach [2, 5]: 0.33 ± 0.08 % ID/g
% ID/g Stomach [2, 6]: 0.18 ± 0.05 % ID/g
SMILES: NC(CNC(=O)CN1CCN(CC(=O)[O-])CCN(CC(=O)[O-])CC1)C(=O)[O-].[68Ga+3] (centres unmarked) [^68Ga-NOTA-ala]
tumor cell uptake versus control agents (Hep3B cells): significantly increase tumor cell uptakes
tumor cell uptake versus control agents (U87MG cells): significantly increase tumor cell uptakes
PET image quality [1]: the highest quality image
tumor uptake in PET images [1]: high tumor uptakes

Source: patent US20120029177A1, “HETEROCYCLE-AMINO ACID DERIVATIVES FOR TARGETING CANCER TISSUE AND RADIOACTIVE OR NON-RADIOACTIVE LABELED COMPOUNDS THEREOF” (SNU R&DB FOUNDATION, priority 2009, published 2012)
